Measurements reported in ChEMBL document CHEMBL1201862, “PubChem BioAssay data set” (2004).
Active and inactive are the calls of the source.

Legend:
[1] = molecular target: Induced myeloid leukemia cell differentiation protein Mcl-1 (Homo sapiens, UniProt Q07820); format: functional
Mucolipin-3 = molecular target: T1, Mucolipin-3 (Homo sapiens, UniProt Q8TDD5); test: Dose response cell-based high-throughput screening assay for agonists of the transient receptor potential channel ML3 (TRPML3). [Related pubchem assays: 1526, 1424, 1448 ]; format: functional
T1 sequence (Q8TDD5 whole entry): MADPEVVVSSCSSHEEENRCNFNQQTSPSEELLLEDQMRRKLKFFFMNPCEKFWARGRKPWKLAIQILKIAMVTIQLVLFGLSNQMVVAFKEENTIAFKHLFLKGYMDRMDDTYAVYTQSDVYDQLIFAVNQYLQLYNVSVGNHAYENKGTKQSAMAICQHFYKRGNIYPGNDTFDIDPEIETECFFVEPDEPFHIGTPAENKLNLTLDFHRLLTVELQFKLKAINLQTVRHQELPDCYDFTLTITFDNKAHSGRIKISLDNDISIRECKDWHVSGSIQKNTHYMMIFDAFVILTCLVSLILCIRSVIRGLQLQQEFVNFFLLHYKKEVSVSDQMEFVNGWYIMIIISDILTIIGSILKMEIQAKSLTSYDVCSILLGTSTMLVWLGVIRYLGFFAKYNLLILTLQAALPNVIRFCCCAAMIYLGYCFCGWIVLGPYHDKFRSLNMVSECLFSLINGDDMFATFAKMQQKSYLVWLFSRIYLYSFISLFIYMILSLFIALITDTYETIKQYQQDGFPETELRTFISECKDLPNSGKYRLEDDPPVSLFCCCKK

Ion channel NompC = Ion channel NompC (Danio rerio, UniProt Q7T1G6); test: Fluorescence counterscreen assay for TRPML3 agonists: dose response cell-based high-throughput screening assay to identify agonists of the transient receptor potential channel N1 (TRPN1). [Related pubchem assays: 1526, 1424, 1448 ]; format: functional
Chain of Ion channel NompC (Q7T1G6 whole entry): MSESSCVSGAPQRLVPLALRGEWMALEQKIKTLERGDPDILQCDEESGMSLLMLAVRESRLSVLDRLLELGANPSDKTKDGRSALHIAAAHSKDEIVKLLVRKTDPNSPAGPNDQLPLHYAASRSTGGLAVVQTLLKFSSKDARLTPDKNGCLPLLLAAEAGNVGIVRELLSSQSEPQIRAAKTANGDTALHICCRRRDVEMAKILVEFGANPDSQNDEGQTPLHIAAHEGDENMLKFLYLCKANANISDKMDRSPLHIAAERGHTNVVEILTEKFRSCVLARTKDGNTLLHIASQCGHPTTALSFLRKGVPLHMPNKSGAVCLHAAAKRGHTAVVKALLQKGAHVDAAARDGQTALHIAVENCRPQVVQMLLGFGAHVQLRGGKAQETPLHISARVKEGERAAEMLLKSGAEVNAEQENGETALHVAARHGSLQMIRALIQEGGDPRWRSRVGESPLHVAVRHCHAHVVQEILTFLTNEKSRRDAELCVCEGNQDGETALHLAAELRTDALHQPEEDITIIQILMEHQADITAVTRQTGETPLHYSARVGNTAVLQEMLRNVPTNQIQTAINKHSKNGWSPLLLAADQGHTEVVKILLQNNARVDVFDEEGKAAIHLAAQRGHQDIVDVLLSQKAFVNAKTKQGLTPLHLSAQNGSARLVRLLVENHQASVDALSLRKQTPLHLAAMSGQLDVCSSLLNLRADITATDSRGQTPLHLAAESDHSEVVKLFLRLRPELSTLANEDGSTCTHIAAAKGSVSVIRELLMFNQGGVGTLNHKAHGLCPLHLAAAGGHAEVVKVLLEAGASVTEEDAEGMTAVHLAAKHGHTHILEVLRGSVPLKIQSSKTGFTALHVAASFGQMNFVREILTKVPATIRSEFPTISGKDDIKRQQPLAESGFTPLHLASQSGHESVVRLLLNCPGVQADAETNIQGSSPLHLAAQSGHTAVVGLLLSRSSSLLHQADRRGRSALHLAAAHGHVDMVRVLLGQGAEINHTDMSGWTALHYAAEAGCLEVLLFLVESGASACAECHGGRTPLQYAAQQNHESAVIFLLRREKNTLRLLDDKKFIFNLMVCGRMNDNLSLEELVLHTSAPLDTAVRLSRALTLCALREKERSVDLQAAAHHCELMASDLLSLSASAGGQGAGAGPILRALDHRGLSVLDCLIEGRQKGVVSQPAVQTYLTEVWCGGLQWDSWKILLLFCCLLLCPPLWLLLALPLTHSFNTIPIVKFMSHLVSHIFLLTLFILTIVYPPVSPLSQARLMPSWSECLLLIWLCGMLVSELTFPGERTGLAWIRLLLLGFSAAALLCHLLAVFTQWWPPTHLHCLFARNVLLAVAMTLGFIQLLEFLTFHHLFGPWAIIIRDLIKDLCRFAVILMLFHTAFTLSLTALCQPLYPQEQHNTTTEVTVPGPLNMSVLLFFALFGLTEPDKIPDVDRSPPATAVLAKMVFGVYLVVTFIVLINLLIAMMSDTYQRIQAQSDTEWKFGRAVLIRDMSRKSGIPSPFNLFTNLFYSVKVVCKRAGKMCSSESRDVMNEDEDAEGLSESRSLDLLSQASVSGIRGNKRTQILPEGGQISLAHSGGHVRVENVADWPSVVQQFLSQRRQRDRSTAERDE

[2] = A cytotoxicity screen of small molecule inhibitors of the PhoP region in Salmonella typhi identified in the primary screen. [Related pubchem assays: 1850, 1864, 1985 ]; format: functional
cells = format: functional
[3] = cytotoxicity in HPDE-C7 cells, cell-based, fluorescence, HTS (AID 430); format: functional; conditions: Homo sapiens
[4] = cytotoxicity in KRAS-transformed pancreatic duct cells, primary screen, cell-based, fluorescence, HTS (AID 431); format: functional; conditions: Homo sapiens;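 note: cell line used: HPDE-C7K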
HeLa = test: HeLa cell cytotoxicity, dose response, cytotoxicity control for MITF activator project, CellTiter-Glo luminescence, cherry-pick samples (AID 540259); format: functional, cell-based; conditions: Homo sapiens
Cytochrome P450 2C9 = Cytochrome P450 2C9 (Homo sapiens, UniProt P11712); conditions: Potency
Chain of Cytochrome P450 2C9 (P11712 whole entry): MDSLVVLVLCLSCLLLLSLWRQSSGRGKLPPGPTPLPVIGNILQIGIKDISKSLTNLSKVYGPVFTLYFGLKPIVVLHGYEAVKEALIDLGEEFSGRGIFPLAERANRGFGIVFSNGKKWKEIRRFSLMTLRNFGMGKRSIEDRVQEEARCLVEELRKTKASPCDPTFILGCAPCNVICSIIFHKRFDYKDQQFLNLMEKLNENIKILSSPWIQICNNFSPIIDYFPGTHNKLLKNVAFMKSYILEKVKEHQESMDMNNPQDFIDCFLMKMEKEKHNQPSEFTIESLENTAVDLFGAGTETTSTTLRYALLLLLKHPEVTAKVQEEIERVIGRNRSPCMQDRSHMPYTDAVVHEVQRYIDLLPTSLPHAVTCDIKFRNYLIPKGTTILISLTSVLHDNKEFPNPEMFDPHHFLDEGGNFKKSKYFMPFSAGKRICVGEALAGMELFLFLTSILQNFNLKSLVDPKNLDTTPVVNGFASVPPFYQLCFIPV

[5] = tested on: Streptococcus sp. 'group A'; test: growth inhibition of control SK(-) GAS strain, dose response, counter-screen for streptokinase expression inhibitor project, luminescence, kanamycin, BacTiterGlo, confirmation (AID 1900); format: functional, organism-based
Streptokinase A = molecular target: T2, Streptokinase A (Streptococcus pyogenes serotype M1, UniProt P10520); test: S. pyogenes streptokinase expression inhibitors, potency, dose response, plasminogen activation absorbance, OD405 (AID 1914); format: functional, Streptococcus pyogenes M1 GAS;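 note: secreted streptokinase activity via plasminogen activation per viability signal from cell pellet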
T2 sequence (P10520 whole entry): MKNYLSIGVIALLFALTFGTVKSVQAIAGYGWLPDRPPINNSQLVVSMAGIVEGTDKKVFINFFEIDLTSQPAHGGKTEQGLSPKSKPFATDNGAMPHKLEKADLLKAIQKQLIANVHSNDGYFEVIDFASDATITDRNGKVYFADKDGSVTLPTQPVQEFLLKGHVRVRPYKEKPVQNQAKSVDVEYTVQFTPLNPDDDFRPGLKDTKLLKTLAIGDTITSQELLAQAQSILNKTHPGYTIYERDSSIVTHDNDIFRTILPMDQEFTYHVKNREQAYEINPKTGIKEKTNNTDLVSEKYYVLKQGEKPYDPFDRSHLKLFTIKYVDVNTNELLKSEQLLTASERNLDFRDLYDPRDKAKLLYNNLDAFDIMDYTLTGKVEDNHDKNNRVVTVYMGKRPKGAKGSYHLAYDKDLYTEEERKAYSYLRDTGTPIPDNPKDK

[6] = growth suppression of PTEN-null colon cells, dose response, cell-based, HCT116 PTEN knockout (AID 1047); format: functional;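 note: HCT116 colon tumor cells with PTEN knocked out; cells exposed to compound for 60 hours before readout; potency for loss of cell viability measured by luminescence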
[7] = growth suppression of beta-catenin-knockout colon cells, dose response, cell-based, HCT116, human colon tumor (AID 1045); format: functional;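 note: HCT116 colon tumor cells with beta catenin knocked out; cells exposed to compound for 60 hours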
Streptococcus = test: Group A Streptococcus viability loss, dose response, counter-screen for streptokinase expression inhibitor project, luminescence, BacTiterGlo (AID 1915); format: functional, organism-based;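 note: potency for reduction of bacterial viability or growth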
Caspase-3 = molecular target: T3, Caspase-3 (Homo sapiens, UniProt P42574); format: functional;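 note: Dose-response selectivity test against caspase-3 for candidate inhibitors of sentrin-specific proteases (SENPs)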
T3 sequence (P42574 whole entry): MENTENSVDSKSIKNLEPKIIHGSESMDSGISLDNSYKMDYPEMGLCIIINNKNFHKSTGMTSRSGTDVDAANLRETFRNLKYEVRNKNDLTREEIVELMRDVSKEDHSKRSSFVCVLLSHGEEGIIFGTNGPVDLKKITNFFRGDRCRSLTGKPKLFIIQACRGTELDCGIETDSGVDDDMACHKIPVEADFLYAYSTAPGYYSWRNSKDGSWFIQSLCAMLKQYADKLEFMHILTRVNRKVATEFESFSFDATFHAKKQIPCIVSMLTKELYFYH

[8] = molecular target: T4, Sentrin-specific protease 7 (Homo sapiens, UniProt Q9BQF6); format: functional;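 note: Luminescence-based dose-response confirmation of ultra-high-throughput screening hits, measuring inhibition of SENP7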
T4 sequence (Q9BQF6 whole entry): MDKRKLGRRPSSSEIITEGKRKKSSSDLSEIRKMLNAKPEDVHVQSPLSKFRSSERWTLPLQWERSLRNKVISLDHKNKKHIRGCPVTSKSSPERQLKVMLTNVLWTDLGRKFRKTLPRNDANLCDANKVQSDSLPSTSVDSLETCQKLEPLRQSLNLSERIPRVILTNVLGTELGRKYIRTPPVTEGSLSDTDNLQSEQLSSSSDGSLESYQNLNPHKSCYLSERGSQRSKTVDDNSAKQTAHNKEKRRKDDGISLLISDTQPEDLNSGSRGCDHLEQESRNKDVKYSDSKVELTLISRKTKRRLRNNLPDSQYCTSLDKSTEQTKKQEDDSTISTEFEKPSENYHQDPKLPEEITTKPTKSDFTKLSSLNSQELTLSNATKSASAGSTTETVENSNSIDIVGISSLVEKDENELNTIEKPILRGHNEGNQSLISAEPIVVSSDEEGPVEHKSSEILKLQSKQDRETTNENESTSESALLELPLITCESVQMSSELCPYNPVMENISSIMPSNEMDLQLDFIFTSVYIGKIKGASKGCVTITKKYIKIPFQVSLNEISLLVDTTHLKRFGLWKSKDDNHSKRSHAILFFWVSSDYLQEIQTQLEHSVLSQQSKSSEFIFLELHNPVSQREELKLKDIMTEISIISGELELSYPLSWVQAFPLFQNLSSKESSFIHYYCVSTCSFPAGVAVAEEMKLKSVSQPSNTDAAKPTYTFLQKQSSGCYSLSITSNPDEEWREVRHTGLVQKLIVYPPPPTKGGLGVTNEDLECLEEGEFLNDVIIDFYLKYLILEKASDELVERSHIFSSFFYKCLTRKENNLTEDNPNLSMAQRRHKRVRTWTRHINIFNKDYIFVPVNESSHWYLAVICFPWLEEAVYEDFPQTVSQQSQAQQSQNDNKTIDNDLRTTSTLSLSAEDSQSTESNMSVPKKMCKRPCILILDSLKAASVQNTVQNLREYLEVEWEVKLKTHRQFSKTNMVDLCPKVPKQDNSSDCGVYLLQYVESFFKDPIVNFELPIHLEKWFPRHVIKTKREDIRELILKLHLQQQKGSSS

[9] = molecular target: T5, Sentrin-specific protease 6 (Homo sapiens, UniProt Q9GZR1); format: functional;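 note: Luminescence-based dose-response confirmatory assay of SENP6 inhibition, following up an ultra-high-throughput screen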
T5 sequence (Q9GZR1 whole entry): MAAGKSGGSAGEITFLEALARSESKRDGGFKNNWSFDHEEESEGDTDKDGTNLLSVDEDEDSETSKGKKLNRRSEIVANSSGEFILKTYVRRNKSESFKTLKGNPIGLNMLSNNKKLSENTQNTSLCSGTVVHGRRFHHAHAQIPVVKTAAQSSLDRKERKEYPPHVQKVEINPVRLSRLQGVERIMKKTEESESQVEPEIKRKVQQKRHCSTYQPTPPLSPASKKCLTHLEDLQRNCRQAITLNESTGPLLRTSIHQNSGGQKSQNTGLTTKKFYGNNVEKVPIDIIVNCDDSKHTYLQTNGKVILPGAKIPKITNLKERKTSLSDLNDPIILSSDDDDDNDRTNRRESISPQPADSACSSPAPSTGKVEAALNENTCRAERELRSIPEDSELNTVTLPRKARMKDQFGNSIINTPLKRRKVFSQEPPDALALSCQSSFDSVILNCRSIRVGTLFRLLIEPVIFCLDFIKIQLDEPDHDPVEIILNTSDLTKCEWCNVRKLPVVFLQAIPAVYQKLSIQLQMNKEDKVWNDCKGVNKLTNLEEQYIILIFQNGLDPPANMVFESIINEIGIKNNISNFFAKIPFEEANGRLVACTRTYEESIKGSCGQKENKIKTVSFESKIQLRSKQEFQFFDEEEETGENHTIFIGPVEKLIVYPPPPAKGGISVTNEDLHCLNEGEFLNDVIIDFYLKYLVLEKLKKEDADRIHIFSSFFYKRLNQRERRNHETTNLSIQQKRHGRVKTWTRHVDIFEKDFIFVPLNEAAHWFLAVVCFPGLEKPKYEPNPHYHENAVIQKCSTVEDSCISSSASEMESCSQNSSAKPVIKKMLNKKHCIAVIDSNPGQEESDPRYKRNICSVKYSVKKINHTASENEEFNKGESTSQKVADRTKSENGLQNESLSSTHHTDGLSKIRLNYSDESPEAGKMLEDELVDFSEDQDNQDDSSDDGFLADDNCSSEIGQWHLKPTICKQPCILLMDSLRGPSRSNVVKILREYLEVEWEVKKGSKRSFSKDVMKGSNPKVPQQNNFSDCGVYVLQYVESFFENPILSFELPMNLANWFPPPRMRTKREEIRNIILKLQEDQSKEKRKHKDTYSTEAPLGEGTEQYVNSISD

[10] = molecular target: T6, Sentrin-specific protease 8 (Homo sapiens, UniProt Q96LD8); format: functional;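 note: luminescence read-out of SENP8 inhibition, dose-response confirmation following an ultra-high-throughput screen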
T6 sequence (Q96LD8 whole entry): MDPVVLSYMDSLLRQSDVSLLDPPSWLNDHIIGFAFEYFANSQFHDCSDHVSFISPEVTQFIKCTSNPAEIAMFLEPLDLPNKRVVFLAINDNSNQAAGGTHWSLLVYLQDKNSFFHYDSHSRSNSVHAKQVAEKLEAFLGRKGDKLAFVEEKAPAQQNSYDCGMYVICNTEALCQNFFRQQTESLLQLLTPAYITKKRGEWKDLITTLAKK

[11] = molecular target: Heat shock protein HSP 90-alpha (Homo sapiens, UniProt P07900); format: functional, organism-based
[12] = molecular target: Luciferin 4-monooxygenase (Photinus pyralis, UniProt P08659); test: firefly luciferase enzyme inhibitors, dose response, biochemical, luminescence (AID 1891)
Chain of Luciferin 4-monooxygenase (P08659 whole entry): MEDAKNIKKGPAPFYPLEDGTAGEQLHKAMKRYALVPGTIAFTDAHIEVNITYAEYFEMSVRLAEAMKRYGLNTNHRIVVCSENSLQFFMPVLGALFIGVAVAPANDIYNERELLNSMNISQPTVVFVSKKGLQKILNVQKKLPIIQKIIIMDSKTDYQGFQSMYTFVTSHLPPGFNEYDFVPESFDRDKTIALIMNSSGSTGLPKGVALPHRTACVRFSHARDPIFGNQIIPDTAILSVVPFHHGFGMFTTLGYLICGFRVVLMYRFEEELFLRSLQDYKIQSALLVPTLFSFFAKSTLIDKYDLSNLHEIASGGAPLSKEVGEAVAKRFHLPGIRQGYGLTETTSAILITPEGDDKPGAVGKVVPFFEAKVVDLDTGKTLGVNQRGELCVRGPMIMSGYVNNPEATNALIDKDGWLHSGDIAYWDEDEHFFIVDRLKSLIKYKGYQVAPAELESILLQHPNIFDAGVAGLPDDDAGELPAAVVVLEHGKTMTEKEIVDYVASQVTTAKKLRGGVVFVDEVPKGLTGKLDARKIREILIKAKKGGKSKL

[13] = Luminescence Cell-Based Dose Confirmation HTS to Identify Inhibitors of Platelet Dense Granule Release. [Related pubchem assays: 1663 (Primary HTS), 1678 (Summary of Project)]; format: functional

Chain of Induced myeloid leukemia cell differentiation protein Mcl-1 (Q07820 whole entry): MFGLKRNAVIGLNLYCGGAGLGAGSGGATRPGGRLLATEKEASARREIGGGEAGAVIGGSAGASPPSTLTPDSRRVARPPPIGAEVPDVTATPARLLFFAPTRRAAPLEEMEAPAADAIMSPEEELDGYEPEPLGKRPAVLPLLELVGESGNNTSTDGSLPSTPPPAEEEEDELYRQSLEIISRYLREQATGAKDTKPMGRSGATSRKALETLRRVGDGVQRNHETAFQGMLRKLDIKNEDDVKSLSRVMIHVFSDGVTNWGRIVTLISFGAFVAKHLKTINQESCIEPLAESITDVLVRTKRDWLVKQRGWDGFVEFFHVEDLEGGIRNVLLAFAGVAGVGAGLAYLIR

[O-][n+]1onc2c1CCC(=N/O)/C2=N\Nc1ccccc1
IC50 [1]: 4.87 µM (active)

COC(=O)c1ccc(Cl)cc1N(Cc1c(F)cccc1Cl)S(C)(=O)=O
EC50 (Mucolipin-3): 2.49 µM (active) | EC50 (Ion channel NompC): 6.15 µM (active)

COc1ccc(-c2noc(CCC(=O)Nc3cccc(C)c3)n2)cc1
EC50 [2]: > 50 µM (active) | IC50 (cells): 15.9 µM (active)

N#Cc1nc(-c2ccc(OCc3ccccc3)cc2)oc1NCCCN1CCOCC1
EC50 [3]: 13 µM (active) | EC50 [4]: 13.6 µM (active)

CCOC(=O)c1cc(-c2ccco2)nc2c1c(C)nn2-c1cccc(Cl)c1
IC50 [1]: 2.51 µM (active)

COc1cc(O)c2c(=O)cc(-c3ccccc3)oc2c1 [TECHTOCHRYSIN]
AC50 (HeLa): 46.2 µM (active) | AC50 (Cytochrome P450 2C9): 2.51 µM (inconclusive)

O=C(C1Cc2ccccc2CN1S(=O)(=O)c1ccc(F)cc1)N1CCCCCC1 (stereo unspecified)
EC50 (Mucolipin-3): 3.72 µM (active) | EC50 (Ion channel NompC): > 29.9 µM (not active)

Cc1nn(C(C)(C)C)c(OC(=O)C2CCCC2)c1S(=O)(=O)c1ccccc1
EC50 (Mucolipin-3): > 9.99 µM (not active) | EC50 (Ion channel NompC): > 29.9 µM (not active)

COc1ccc(O)c(-c2cc(-c3cccc(Br)c3)[nH]n2)c1
EC50 [5]: 6.53 µM (active) | EC50 (Streptokinase A): > 150 µM (inconclusive) | EC50 [3]: 8.85 µM (active) | EC50 [4]: 4.73 µM (active) | EC50 [6]: 25.4 µM (active) | EC50 [7]: 16.6 µM (active) | EC50 (Streptococcus): 12.4 µM (active) | IC50 (Caspase-3): 97.7 µM (active) | IC50 [8]: 11.3 µM (active) | IC50 [9]: 26.5 µM (active) | IC50 [10]: 29.1 µM (active) | AC50 [11]: 8.06 µM (active)

C=CCOc1ccc(Cl)cc1CNC1CCCC1
EC50 [2]: > 50 µM (active)

CCN(CC)S(=O)(=O)c1cc(NC(=O)C2Cc3ccccc3C(=O)O2)ccc1C (stereo unspecified)
EC50 [2]: > 50 µM (active) | EC50 [12]: > 112 µM (not active) | EC50 [13]: > 112 µM (not active)

CC(C)C[C@@H](CC(=O)N[C@H](CC(=O)N[C@@H]1CCCC[C@H]1C(=O)N[C@H](CC(=O)N[C@@H](CCC(=O)O)CC(=O)O)Cc1ccccc1)C(C)C)NC(=O)[C@@H]1CCCC[C@H]1N
AC50 (Cytochrome P450 2C9): 39.8 µM (inconclusive)
